Assay results taken from patent publication US7872004B2, “6-(heterocyclyl-substituted benzyl)-4-oxoquinoline compound and use thereof as HIV integrase inhibitor” (Japan Tobacco Inc., priority 2006, dated 2011).

Biological target: T1, HIV integrase (Human immunodeficiency virus type 1 group M subtype B, UniProt P12497, F1332H)
T1 construct: HIV integrase full length gene; made in house; host or cells: Escherichia coli BL21(DE3)
Assay: Determination of enzyme (HIV integrase) inhibitory activity
Assay type: biochemical, HIV (Human Immunodeficiency Virus (type 1))
Details: recombinant integrase protein (F185H), strand transfer plate assay, absorbance at 450 nm
Text: The following explains evaluation methods of the HIV integrase inhibitory activity of the compound of the present invention.
(i) Construction of Recombinant Integrase Gene Expression System
HIV integrase full length gene (J. Virol., 67, 425-437 (1993)) in which phenylalanine at codon 185 was substituted by histidine, was inserted between the restriction enzyme NdeI and XhoI sites of plasmid pET21a(+) (Novagen), whereby an integrase expression vector pET21a-IN-F185H was constructed.
(ii) Production and Purification of Integrase Protein
Escherichia coli recombinant BL21(DE3) transformed with plasmid pET21a-IN-F185H obtained in (i) was shake cultured at 30° C. in a liquid medium containing ampicillin. When the culture reached the logarithmic growth phase, isopropyl-β-D-thiogalactopyranoside was added to promote expression of integrase gene. The culture was continued for 3 hr to promote accumulation of the integrase protein. The recombinant E. coli was collected in pellets by centrifugal separation and preserved at −80° C.
The E. coli was suspended in Lysis buffer ([…] HEPES (pH 7.5), 5 mM DTT, 10 mM CHAPS, 10% glycerol) containing 1M sodium chloride and subjected to repeat pressurization and depressurization for rupture, and centrifugal separation at 4° C., 40,000×g, 60 min to recover a water-soluble fraction (supernatant). This was diluted 10-fold with Lysis buffer free of sodium chloride, mixed with SP-Sepharose (GE healthcare Bioscience) and stirred at 4° C. for 60 min to allow adsorption of integrase protein to the resin. The resin was washed with Lysis buffer containing 100 mM sodium chloride and the integrase protein was eluted with Lysis buffer containing 1M sodium chloride.
The eluted integrase protein solution was subjected to a Superdex 75 (GE healthcare Bioscience) column for gel filtration. The protein was eluted with Lysis buffer containing 1M sodium chloride.
The obtained fractions of the integrase protein were collected and preserved at −80° C.
(iii) Preparation of DNA Solution
The following DNA synthesized by Greiner or FASMAC was dissolved in TE buffer (10 mM Tris-hydrochloric acid (pH 8.0), 1 mM EDTA) and mixed with donor DNA, target DNA, and each complementary strand (+ and − strands) to 1 μM. The mixture was heated at 95° C. for 5 min, 80° C. for 10 min, 70° C. for 10 min, 60° C. for 10 min, 50° C. for 10 min and 40° C. for 10 min and kept at 25° C. to give a double stranded DNA, which was used for the test.
(iv) Determination of Enzyme (HIV Integrase) Inhibitory Activity
The donor DNA was diluted with TE buffer to 10 nM (or 5 nM), of which 50 μl was added to each well of streptavidin-coated microtiter plate (Roche) and allowed to adsorb at 37° C. for 60 min. The plate was washed with phosphate buffer (Dulbecco's PBS, Sanko Junyaku Co., Ltd.) containing 0.1% Tween 20 and phosphate buffer. Then, an enzyme reaction mixture (70 μl), a test substance (10 μl) diluted with the enzyme reaction mixture and 100 μg/ml (or 64 μg/ml (2 μM)) integrase protein (10 μl) were added to each well and reacted at 37° C. for 60 min.
Composition of the enzyme reaction mixture: 30 mM MOPS (3-morpholinopropanesulfonic acid), 5 mM magnesium chloride, 3 mM DTT (dithiothreitol), 0.1 mg/ml BSA (bovine serum albumin), 5% glycerol, 10% DMSO (dimethyl sulfoxide), 0.01% Tween 20.
Then, 50 nM (or 25 nM) target DNA (10 μl) was added, reacted at 37° C. for 10 min and washed with phosphate buffer containing 0.1% Tween 20 to stop the reaction.
Then, 100 mU/ml peroxidase labeled anti-digoxigenin antibody solution (Roche, 100 μl) was added, and the mixture was reacted at 37° C. for 60 min, followed by washing with phosphate buffer containing 0.1% Tween 20.
A peroxidase color solution (Bio Rad, 100 μl) was added and allowed to react at room temperature for 4 min (or 3 min). The color reaction was stopped by adding IN sulfuric acid (100 μl). The absorbance at 450 nm was measured. […]

Compound	IC50 [nM]
COc1cc2c(cc1Cc1cc(N3CCOCC3)cc(Cl)c1F)c(=O)c(C(=O)O)cn2[C@H](CO)C(C)(C)OC [Example 42, 6-[3-chloro-2-fluoro-5-(morpholin-4-yl)benzyl]-1-((R)-1-hydroxymethyl-2-methoxy-2-methylpropyl)-7-methoxy-4-oxo-1,4-dihydroquinoline-3-carboxylic acid]	< 10
CCc1cc2c(cc1Cc1cc(N3CCOCC3)cc(Cl)c1F)c(=O)c(C(=O)O)cn2[C@H](CO)C(C)(C)OC [Example 43, 6-[3-chloro-2-fluoro-5-(morpholin-4-yl)benzyl]-7-ethyl-1-((R)-1-hydroxymethyl-2-methoxy-2-methylpropyl)-4-oxo-1,4-dihydroquinoline-3-carboxylic acid]	< 10
CCc1cc2c(cc1Cc1cc(N3CCOCC3)cc(Cl)c1F)c(=O)c(C(=O)O)cn2[C@H](CO)CCOC [Example 44, 6-[3-chloro-2-fluoro-5-(morpholin-4-yl)benzyl]-7-ethyl-1-((S)-1-hydroxymethyl-3-methoxypropyl)-4-oxo-1,4-dihydroquinoline-3-carboxylic acid]	10 to 100
COc1cc2c(cc1Cc1cc(N3CCCC3=O)cc(Cl)c1F)c(=O)c(C(=O)O)cn2[C@H](CO)C(C)(C)C [Example 45, 6-[3-chloro-2-fluoro-5-(2-oxopyrrolidin-1-yl)benzyl]-1-((S)-1-hydroxymethyl-2,2-dimethylpropyl)-7-methoxy-4-oxo-1,4-dihydroquinoline-3-carboxylic acid]	< 10
COc1cc2c(cc1Cc1cc(N3CCCC3=O)c(F)c(Cl)c1F)c(=O)c(C(=O)O)cn2[C@H](CO)C(C)(C)C [Example 46, 6-[3-chloro-2,4-difluoro-5-(2-oxopyrrolidin-1-yl)benzyl]-1-((S)-1-hydroxymethyl-2,2-dimethylpropyl)-7-methoxy-4-oxo-1,4-dihydroquinoline-3-carboxylic acid]	< 10
COCC[C@@H](CO)n1cc(C(=O)O)c(=O)c2cc(Cc3cc(N4CCCC4=O)cc(Cl)c3F)c(OC)cc21 [Example 47, 6-[3-chloro-2-fluoro-5-(2-oxopyrrolidin-1-yl)benzyl]-1-((S)-1-hydroxymethyl-3-methoxypropyl)-7-methoxy-4-oxo-1,4-dihydroquinoline-3-carboxylic acid]	10 to 100
COc1cc2c(cc1Cc1cc(N3CCCC3=O)cc(Cl)c1F)c(=O)c(C(=O)O)cn2[C@H](CO)[C@@H](C)OC [Example 48, 6-[3-chloro-2-fluoro-5-(2-oxopyrrolidin-1-yl)benzyl]-1-((1R,2R)-1-hydroxymethyl-2-methoxypropyl)-7-methoxy-4-oxo-1,4-dihydroquinoline-3-carboxylic acid]	< 10
COc1cc2c(cc1Cc1cc(N3CCOCC3)c(F)c(Cl)c1F)c(=O)c(C(=O)O)cn2[C@H](CO)C(C)(C)C [Example 49, 6-[3-chloro-2,4-difluoro-5-(morpholin-4-yl)benzyl]-1-((S)-1-hydroxymethyl-2,2-dimethylpropyl)-7-methoxy-4-oxo-1,4-dihydroquinoline-3-carboxylic acid]	< 10
CCO[C@H](C)[C@@H](CO)n1cc(C(=O)O)c(=O)c2cc(Cc3cc(N4CCOCC4)cc(Cl)c3F)c(OC)cc21 [Example 50, 6-[3-chloro-2-fluoro-5-(morpholin-4-yl)benzyl]-1-[(1R,2R)-2-ethoxy-1-(hydroxymethyl)propyl]-7-methoxy-4-oxo-1,4-dihydroquinoline-3-carboxylic acid]	10 to 100
CC(C)(C)[C@@H](CO)n1cc(C(=O)O)c(=O)c2cc(Cc3cc(N4CCCC4=O)cc(Cl)c3F)ccc21 [Example 51, 6-[3-chloro-2-fluoro-5-(2-oxopyrrolidin-1-yl)benzyl]-1-((S)-1-hydroxymethyl-2,2-dimethylpropyl)-4-oxo-1,4-dihydroquinoline-3-carboxylic acid]	< 10
CCc1cc2c(cc1Cc1cc(N3CCCC3=O)cc(Cl)c1F)c(=O)c(C(=O)O)cn2[C@H](CO)C(C)(C)C [Example 52, 6-[3-chloro-2-fluoro-5-(2-oxopyrrolidin-1-yl)benzyl]-7-ethyl-1-((S)-1-hydroxymethyl-2,2-dimethylpropyl)-4-oxo-1,4-dihydroquinoline-3-carboxylic acid]	10 to 100
CC(C)(C)[C@@H](CO)n1cc(C(=O)O)c(=O)c2cc(Cc3cc(N4CCOCC4)cc(Cl)c3F)ccc21 [Example 53, 6-[3-chloro-2-fluoro-5-(morpholin-4-yl)benzyl]-1-((S)-1-hydroxymethyl-2,2-dimethylpropyl)-4-oxo-1,4-dihydroquinoline-3-carboxylic acid]	< 10
CC(C)(C)[C@@H](CO)n1cc(C(=O)O)c(=O)c2cc(Cc3cc(N4CCCC4=O)c(F)c(Cl)c3F)ccc21 [Example 54, 6-[3-chloro-2,4-difluoro-5-(2-oxopyrrolidin-1-yl)benzyl]-1-((S)-1-hydroxymethyl-2,2-dimethylpropyl)-4-oxo-1,4-dihydroquinoline-3-carboxylic acid]	< 10
CCc1cc2c(cc1Cc1cc(N3CCCC3=O)c(F)c(Cl)c1F)c(=O)c(C(=O)O)cn2[C@H](CO)C(C)(C)C [Example 55, 6-[3-chloro-2,4-difluoro-5-(2-oxopyrrolidin-1-yl)benzyl]-7-ethyl-1-((S)-1-hydroxymethyl-2,2-dimethylpropyl)-4-oxo-1,4-dihydroquinoline-3-carboxylic acid]	10 to 100
CC(C)(C)[C@@H](CO)n1cc(C(=O)O)c(=O)c2cc(Cc3cc(N4CCOCC4)c(F)c(Cl)c3F)ccc21 [Example 56, 6-[3-chloro-2,4-difluoro-5-(morpholin-4-yl)benzyl]-1-((S)-1-hydroxymethyl-2,2-dimethylpropyl)-4-oxo-1,4-dihydroquinoline-3-carboxylic acid]	< 10
COc1cc2c(cc1Cc1cc(-c3noc(C)n3)cc(Cl)c1F)c(=O)c(C(=O)O)cn2[C@H](CO)C(C)C [Example 57, 6-[3-chloro-2-fluoro-5-(5-methyl-1,2,4-oxadiazol-3-yl)benzyl]-1-((S)-1-hydroxymethyl-2-methylpropyl)-7-methoxy-4-oxo-1,4-dihydroquinoline-3-carboxylic acid]	< 10
CC(C)(C)[C@H](CO)n1cc(C(=O)O)c(=O)c2cc(Cc3cc(N4CCOCC4)c(F)c(Cl)c3F)ccc21 [Example 59, 6-[3-chloro-2,4-difluoro-5-(morpholin-4-yl)benzyl]-1-((R)-1-hydroxymethyl-2,2-dimethylpropyl)-4-oxo-1,4-dihydroquinoline-3-carboxylic acid]	10 to 100
